The text below walks through data of patent US20130225548A1, “Pyridine Derivative and Medicinal Agent” (NIPPON SHINYAKU CO., LTD., priority 2010, published 2013).

Where a name gives a salt, the structure may show the parent alone.

In this assay the target is T1, Syk tyrosine kinase (Homo sapiens, UniProt P43405).
T1 construct: purchased Carna Biosciences, Inc
Briefly: Test for Syk tyrosine kinase inhibitory activity (ELISA). In kind it is biochemical. The note with it: Syk tyrosine kinase (Carna Biosciences), 25 μM ATP in substrate solution, 30° C. 1 hour, n=2; read-out: Evaluation (IC50, concentration inhibiting the tyrosine kinase activity at 50%). The procedure: Test Example 1: Test for Syk Tyrosine Kinase Inhibitory Activity
1. Preparation of Test Substance
A test substance was prepared at 10 mM in dimethyl sulfoxide (DMSO), and further diluted with DMSO to concentrations of 1000, 300, 100, 30, 10, 3, 1, 0.3, 0.1, 0.03, and 0.01 μM. The resulting solutions were further diluted to 20-fold with an assay buffer, whereby test substance solutions were prepared. As a negative control, a solution obtained by diluting DMSO to 20-fold with an assay buffer was used. As the assay buffer, a buffer containing 15 mM Tris-HCl (pH 7.5), 0.01 (v/v) % Tween-20, and 1 mM dithiothreitol was used.
2. Measurement of Syk Tyrosine Kinase Inhibitory Activity
The activity was measured using the ELISA method. Each of the test substance solutions was added to a streptavidine-coated 96-well place (DELFIA Strip Plate 8×12 wells, PerkinElmer Co., Ltd,) at 10 μL per well (n=2), and a substrate solution (625 nM biotinylated peptide substrate, 25 μM ATP, 25 mM MgCl2, 15 mM Tris-HCl (pH 7.5), 0.01 (v/v) % Tween-20, 1 mM dithiothreitol) was added to the plate at 20 μL per well, and the resulting mixture was stirred. Finally, Syk tyrosine kinase (Carna Biosciences, Inc.) (previously diluted to 0.025 nM with the assay buffer) was added to the plate at 20 μL per well, and the resulting mixture was stirred. A reaction was allowed to proceed at 30° C. for 1 hour. After the plate was washed 4 times with a washing buffer (50 mM Tris-HCl (pH 7.5, 150 mM NaCl, 0.02 (v/v) % Tween-20), a blocking buffer (0.1% bovine serum albumin, 50 mM Tris-HCl (pH 7.5), 150 mM NaCl, 0.02 (v/v) % Tween-20) was added to the plate at 150 μL per well, and blocking was performed at 30° C. for 30 minutes. Then, the blocking buffer was removed, and a horseradish peroxidase-labeled anti-phosphorylated tyrosine antibody (BD Biosciences, Inc.) (previously diluted to 10000-fold with the blocking buffer) was added to the plate at 100 μL per well, and the plate was incubated at 30° C. for 30 minutes. After the plate was washed 4 times with the washing buffer, a 3,3′,5,5′-tetramethylbenzidine solution (Sigma-Aldrich Co., Ltd.) was added to the plate at 100 μL per well to develop the color for 10 minutes. The reaction was stopped by adding 0.1 M sulfuric acid at 100 μL per well. The absorbance at 450 nm was measured using a microplate reader (Multiskan F C, Thermo Fisher Scientific K,K.).
3. Analysis of Measurement Results
A non-linear regression analysis was performed for the measured absorbance using the SAS system (SAS institute. Inc.), and a concentration of each of the test substances: inhibiting the tyrosine kinase activity at 50% (IC50 ) was calculated. A case where IC50 is […] was evaluated as ***, a case where IC50 is 5 nM or more and less than 50 nM was evaluated as **, and a case where IC50 is 50 nM or more and less than 500 nM was evaluated as *, which are shown in the column of evaluation item.
A general note: In an ELISA, binding on a coated surface is turned into a signal by an enzyme label.
Regarding `N#CCCn1cnc2cc(-c3cc(C4CC4)cc(Nc4cc(C#N)ccn4)n3)ccc21` [Example 134, 2-({6-[1-(2-cyanoethyl)-1H-benzimidazol-5-yl]-4-cyclopropylpyridin-2-yl}amino)pyridine-4-carbonitrile hydrochloride], the IC50 lay within 5 to 50 nM.

With `CN(C)[C@@H]1CCN(c2ccc(-c3cc(C4CC4)cc(Nc4cc(C#N)ccn4)n3)cn2)C1` [Example 52, 2-({4-cyclopropyl-6′-[(3R)-3-(dimethylamino)pyrrolidin-1-yl]-2,3′-bipyridin-yl}amino)pyridine-4-carbonitrile hydrochloride], the IC50 lay in the range of 50 to 500 nM.

With `CCn1cnc2cc(-c3cc(C4CC4)cc(Nc4cc(C#N)ccn4)n3)ccc21` [Example 149, 2-{[4-cyclopropyl-6-(1-ethyl-1H-benzimidazol-5-yl)pyridin-2-yl]amino}pyridine-4-carbonitrile hydrochloride], the IC50 was 50 to 500 nM.

As to `Cn1cnc2cc(-c3cc(C4CC4)cc(Nc4cc(C#N)ccn4)n3)ccc21` [Example 15, 2-{[4-cyclopropyl-6-(1-methyl-1H-benzimidazol-5-yl)pyridin-2-yl]amino}pyridine-4-carbonitrile hydrocloride], the IC50 was in the range of 5 to 50 nM.

As to `N#Cc1ccnc(Nc2cc(C3CC3)cc(-c3ccc4c(c3)ncn4[C@H]3CC[C@H](O)CC3)n2)c1` [Example 14, 2-({4-cyclopropyl-6-[1-(trans-4-hydroxycyclohexyl)-1H-benzimidazol-5-yl]pyridin-2-yl}amino)pyridine-4-carbonitrile hydrochloride], the IC50 was 5 to 50 nM.

Take `N#Cc1ccnc(Nc2cc(C3CC3)cc(-c3ccc(N4CC[C@@H](N)C4)nc3)n2)c1` [Example 49, 2-({6′-[(3R)-3-aminopyrrolidin-1-yl]-4-cyclopropyl-2,3′-bipyridin-6-yl}amino)pyridine-4-carbonitrile dihydrochioride]: the IC50 is 5 to 50 nM.

On to `N#Cc1ccnc(Nc2cc(C3CC3)cc(-c3ccc4c(c3)ncn4C3CC3)n2)c1` [Example 150, 2-{[4-cyclopropyl-6-(1-cyclopropyl-1H-benzimidazol-5-yl)pyridin-2-yl]amino}pyridin-4-carbonitrile hydrochloride], for which the IC50 lay in the range of 50 to 500 nM.

For the compound `N#Cc1ccnc(Nc2cc(C3CC3)cc(-c3cnc(N4CCS(=O)(=O)CC4)nc3)n2)c1` [Example 105, 2-({4-cyclopropyl-6-[2-(1,1-dioxidethiomorpholin-4-yl)pyrimidin-5-yl]pyridin-2-yl}amino)pyridine-4-carbonitrile hydrochloride], the IC50 was 50 to 500 nM.

Take `N#Cc1ccnc(Nc2cc(C3CC3)cc(-c3ccc(N4CC[C@H](O)C4)nc3)n2)c1` [Example 25, 2-({4-cyclopropyl-6′-[(3S)-3-hydroxypyrrolidin-1-yl]-2,3′-bipyridin-6-yl}amino)pyridine-4-carbonitrile hydrochloride]: the IC50 fell in the range of 5 to 50 nM.

`N#Cc1ccnc(Nc2cc(C3CC3)cc(-c3ccc4ncn(C5(CO)CCCCC5)c4c3)n2)c1` [Example 135, 2-[(4-cyclopropyl-6-(1-[1-(hydroxymethyl)cyclohexyl]-1H-benzimidazol-6-yl)pyridin-2-yl)amino]pyridine-4-carbonitrile hydrochloride]: the IC50 fell in the range of 5 to 50 nM.

Consider `N#Cc1ccnc(Nc2cc(C3CC3)cc(-c3ccc(NCCCO)nc3)n2)c1` [Example 23, 2-({4-cyclopropyl-6′-[(3-hydroxypropyl)amino]-2,3′-bypyridin-6-yl}amino)pyridine-4-carbonitrile hydrochloride], for which the IC50 was in the range of 5 to 50 nM.

In the case of `Cc1cc(N2CCS(=O)(=O)CC2)ncc1-c1cc(C2CC2)cc(Nc2cc(C#N)ccn2)n1` [Example 155, 2-{[4-cyclopropyl-6′-(1,1-dioxidethiomorpholin-4-yl)-4′-methyl-2,3′-bipyridin-6-yl]amino}pyridine-4-carbonitrile hydrochloride], the IC50 fell in the range of 5 to 50 nM.

`N#Cc1ccnc(Nc2cc(C3CC3)cc(-c3ccc(N[C@H]4CC[C@H](O)CC4)nc3)n2)c1` [Example 12, 2-({4-cyclopropyl-6′-[(trans-4-hydroxycyclohexyl)amino]-2,3′-bipyridin-6-yl}amino)pyridine-4-carbonitrile hydrochloride]: the IC50 fell in the range of 50 to 500 nM.

As for `N#Cc1ccnc(Nc2cc(C3CC3)cc(-c3ccc(N4CCC[C@H](O)C4)nc3)n2)c1` [Example 33, 2-({4-cyclopropyl-6′-[(3S)-3-hydroxypiperidin-1-yl]-2,3′-bipyridin-6-yl}amino)pyridine-4-carbonitrile hydrochloride], the IC50 was 5 to 50 nM.

On to `CNC(=O)CN1CCN(c2ccc(-c3cc(C4CC4)cc(Nc4cc(C#N)ccn4)n3)cn2)CC1` [Example 63, 2-(4-{6-[(4-cyanopyridin-2-yl)amino]-4-cyclopropyl-2,3′-bipyridin-6′-yl}piperazin-1-yl)-N-methylacetamide hydrochloride], for which the IC50 was in the range of 50 to 500 nM.

Consider `N#Cc1ccnc(Nc2cc(C3CC3)cc(-c3cncc(OCCN4CCOCC4)c3)n2)c1` [Example 101, 2-({4-cyclopropyl-5′-[2-(morpholin-4-yl)ethoxy]-2,3′-bipyridin-6-yl}amino)pyridine-4-carbonitrile hydrochloride], for which the IC50 was 50 to 500 nM.

`N#Cc1ccnc(Nc2cc(C3CC3)cc(-c3ccc(NCCO)nc3)n2)c1` [Example 2, 2-({4-cyclopropyl-6′-[(2-hydroxyethyl)amino]-2,3′-bypyridin-6-yl}amino)pyridine-4-carbonitrile hydrochloride]: the IC50 was in the range of 5 to 50 nM.

Take `N#Cc1ccnc(Nc2cc(C3CC3)cc(-c3ccc4c(c3)ncn4CCC(N)=O)n2)c1` [Example 129, 3-(5-{6-[(4-cyanopyridin-2-yl)amino]-4-cyclopropylpyridin-2-yl}-1H-benzimidazol-1-yl)propanamide hydrochloride]: the IC50 fell in the range of 5 to 50 nM.

`N#Cc1ccnc(Nc2cc(C3CC3)cc(-c3ccc(CN4CCCN(C(N)=O)CC4)nc3)n2)c1` [Example 154, 4-({6-[(4-cyanopyridin-2-yl)amino]-4-cyclopropyl-2,3′-bipyridin-6′-yl}methyl)-1,4-diazepane-1-carboxamide hydrochloride]: the IC50 is 50 to 500 nM.

Turning to `N#Cc1ccnc(Nc2cc(C3CC3)cc(-c3ccc(N(CCO)CCO)nc3)n2)c1` [Example 31, 2-({6′-[bis(2-hydroxyethyl)amino]-4-cyclopropyl-2,3′-bipyridin-6-yl}amino)pyridine-4-carbonitrile hydrochloride], the IC50 is 5 to 50 nM.

With `N#Cc1ccnc(Nc2cc(C3CC3)cc(-c3ccnc(CN4CCNC(=O)C4)c3)n2)c1` [Example 87, 2-({4-cyclopropyl-2′-[(3-oxopiperazin-1-yl)methyl]-2,4′-bipyridin-6-yl}amino)pyridine-4-carbonitrile hydrochloride], the IC50 fell in the range of 5 to 50 nM.

With `N#Cc1ccnc(Nc2cc(C3CC3)cc(-c3ccc(N4CCCN(C(N)=O)CC4)nc3)n2)c1` [Example 10, 4-{6-[(4-cyanopyridin-2-yl)amino]-4-cyclopropyl-2,3′-bipyridin-6′-yl}-1,4-diazepane-1-carboxamide hydrochloride], the IC50 is 5 to 50 nM.

In the case of `N#Cc1ccnc(Nc2cc(C3CC3)cc(-c3ccc(N4CCC(O)CC4)cc3)n2)c1` [Example 41, 2-({4-cyclopropyl-6-[4-(4-hydroxypiperidin-1-yl)phenyl]pyridin-2-yl}amino)pyridine-4-carbonitrile hydrochloride], the IC50 was 50 to 500 nM.

Regarding `CO[C@H]1CC[C@H](n2cnc3ccc(-c4cc(C5CC5)cc(Nc5cc(C#N)ccn5)n4)cc32)CC1` [Example 138, 2-({4-cyclopropyl-6-[1-(trans-4-methoxycyclohexyl)-1H-benzimidazol-6-yl]pyridin-2-yl}amino)pyridine-4-carbonitrile hydrochloride], the IC50 was in the range of 50 to 500 nM.

On to `CC(=O)N1CCCN(c2ccc(-c3cc(C4CC4)cc(Nc4cc(C#N)ccn4)n3)cn2)CC1` [Example 9, 2-{[6′-(4-acetyl-1,4-diazepan-1-yl)-4-cyclopropyl-2,3′-bipyridin-6-yl]amino}pyridine-4-carbonitrile hydrochloride], for which the IC50 was 50 to 500 nM.
